Assay results taken from ChEMBL document CHEMBL2434896, “Carbonic anhydrase inhibitors. Synthesis of heterocyclic 4-substituted pyridine-3-sulfonamide derivatives and their inhibition of the human cytosolic isozymes I and II and transmembrane tumor-associated isozymes IX and XII” (Eur J Med Chem, 2013).
The source made the active and inactive calls. The calls are words filed in the database; no cut-off is given here.

What was measured:
[1] = system: LOX IMVI; experiment: Growth inhibition of human LOXIMVI cells at 10 uM after 48 hrs by sulforhodamine B assay; format: functional
[2] = system: SF-539; experiment: Growth inhibition of human SF539 cells at 10 uM after 48 hrs by sulforhodamine B assay; format: functional; conditions: SF-539, 48 h, read-out: GI
[3] = system: SF-295; experiment: Growth inhibition of human SF295 cells at 10 uM after 48 hrs by sulforhodamine B assay; format: functional; conditions: SF-295, 48 h, read-out: GI
[4] = system: SF-268; experiment: Growth inhibition of human SF268 cells at 10 uM after 48 hrs by sulforhodamine B assay; format: functional
[5] = system: KM12; experiment: Growth inhibition of human KM12 cells at 10 uM after 48 hrs by sulforhodamine B assay; format: functional
[6] = system: HCT-15; experiment: Growth inhibition of human HCT15 cells at 10 uM after 48 hrs by sulforhodamine B assay; format: functional; conditions: HCT-15, 48 h, read-out: GI
[7] = system: HCT-116; experiment: Growth inhibition of human HCT116 cells at 10 uM after 48 hrs by sulforhodamine B assay; format: functional; conditions: HCT-116, 48 h, read-out: GI
[8] = system: COLO 205; experiment: Growth inhibition of human COLO205 cells at 10 uM after 48 hrs by sulforhodamine B assay; format: functional
[9] = system: NCI-H522; experiment: Growth inhibition of human NCI-H522 cells at 10 uM after 48 hrs by sulforhodamine B assay; format: functional; conditions: NCI-H522, 48 h, read-out: GI
[10] = system: NCI-H460; experiment: Growth inhibition of human NCI-H460 cells at 10 uM after 48 hrs by sulforhodamine B assay; format: functional
[11] = system: NCI-H322M; experiment: Growth inhibition of human NCI-H322M cells at 10 uM after 48 hrs by sulforhodamine B assay; format: functional; conditions: read-out: GI
[12] = system: HOP-62; experiment: Growth inhibition of human HOP62 cells at 10 uM after 48 hrs by sulforhodamine B assay; format: functional
[13] = system: SR; experiment: Growth inhibition of human SR cells at 10 uM after 48 hrs by sulforhodamine B assay; format: functional; conditions: read-out: GI
[14] = system: RPMI-8226; experiment: Growth inhibition of human RPMI8226 cells at 10 uM after 48 hrs by sulforhodamine B assay; format: functional; conditions: RPMI-8226, 48 h, read-out: GI
[15] = system: MOLT-4; experiment: Growth inhibition of human MOLT4 cells at 10 uM after 48 hrs by sulforhodamine B assay; format: functional; conditions: MOLT-4, 48 h, read-out: GI
[16] = system: K562; experiment: Growth inhibition of human K562 cells at 10 uM after 48 hrs by sulforhodamine B assay; format: functional; conditions: K562, 48 h, read-out: GI
[17] = system: HL-60(TB); experiment: Growth inhibition of human HL-60(TB) cells at 10 uM after 48 hrs by sulforhodamine B assay; format: functional; conditions: HL-60, 48 h, read-out: GI
[18] = system: CCRF-CEM; experiment: Growth inhibition of human CCRF-CEM cells at 10 uM after 48 hrs by sulforhodamine B assay; format: functional
[19] = target: Carbonic anhydrase 9 (Homo sapiens, UniProt Q16790); experiment: Inhibition of human carbonic anhydrase 9 after 15 mins by stopped flow CO2 hydration assay
[20] = system: T47D; experiment: Growth inhibition of human T47D cells at 10 uM after 48 hrs by sulforhodamine B assay; format: functional; conditions: read-out: GI
[21] = system: BT-549; experiment: Growth inhibition of human BT549 cells at 10 uM after 48 hrs by sulforhodamine B assay; format: functional; conditions: BT-549, 48 h, read-out: GI
[22] = system: Hs-578T; experiment: Growth inhibition of human Hs 578T cells at 10 uM after 48 hrs by sulforhodamine B assay; format: functional
[23] = system: MDA-MB-231; experiment: Growth inhibition of human MDA-MB-231 cells at 10 uM after 48 hrs by sulforhodamine B assay; format: functional
[24] = system: DU-145; experiment: Growth inhibition of human DU145 cells at 10 uM after 48 hrs by sulforhodamine B assay; format: functional
[25] = system: PC-3; experiment: Growth inhibition of human PC3 cells at 10 uM after 48 hrs by sulforhodamine B assay; format: functional; conditions: PC-3, 48 h, read-out: GI
[26] = system: UO-31; experiment: Growth inhibition of human UO31 cells at 10 uM after 48 hrs by sulforhodamine B assay; format: functional; conditions: UO-31, 48 h, read-out: GI
[27] = system: TK-10; experiment: Growth inhibition of human TK10 cells at 10 uM after 48 hrs by sulforhodamine B assay; format: functional; conditions: TK-10, 48 h, read-out: GI
[28] = system: RXF 393; experiment: Growth inhibition of human RXF393 cells at 10 uM after 48 hrs by sulforhodamine B assay; format: functional
[29] = system: CAKI-1; experiment: Growth inhibition of human CAKI-1 cells at 10 uM after 48 hrs by sulforhodamine B assay; format: functional; conditions: CAKI-1, 48 h, read-out: GI
[30] = system: ACHN; experiment: Growth inhibition of human ACHN cells at 10 uM after 48 hrs by sulforhodamine B assay; format: functional; conditions: read-out: GI
[31] = system: SK-OV-3; experiment: Growth inhibition of human SKOV3 cells at 10 uM after 48 hrs by sulforhodamine B assay; format: functional
[32] = system: OVCAR-5; experiment: Growth inhibition of human OVCAR5 cells at 10 uM after 48 hrs by sulforhodamine B assay; format: functional; conditions: OVCAR-5, 48 h, read-out: GI
[33] = system: OVCAR-4; experiment: Growth inhibition of human OVCAR4 cells at 10 uM after 48 hrs by sulforhodamine B assay; format: functional
[34] = system: OVCAR-3; experiment: Growth inhibition of human OVCAR3 cells at 10 uM after 48 hrs by sulforhodamine B assay; format: functional
[35] = system: IGROV-1; experiment: Growth inhibition of human IGROV1 cells at 10 uM after 48 hrs by sulforhodamine B assay; format: functional; conditions: IGROV-1, 48 h, read-out: GI
[36] = system: UACC-62; experiment: Growth inhibition of human UACC62 cells at 10 uM after 48 hrs by sulforhodamine B assay; format: functional; conditions: UACC-62, 48 h, read-out: GI
[37] = system: SK-MEL-5; experiment: Growth inhibition of human SK-MEL-5 cells at 10 uM after 48 hrs by sulforhodamine B assay; format: functional; conditions: SK-MEL-5, 48 h, read-out: GI
[38] = system: SK-MEL-28; experiment: Growth inhibition of human SK-MEL-28 cells at 10 uM after 48 hrs by sulforhodamine B assay; format: functional, cell-based
[39] = system: SK-MEL-2; experiment: Growth inhibition of human SK-MEL-2 cells at 10 uM after 48 hrs by sulforhodamine B assay; format: functional
[40] = system: MDA-MB-435; experiment: Growth inhibition of human MDA-MB-435 cells at 10 uM after 48 hrs by sulforhodamine B assay; format: functional
[41] = system: M14; experiment: Growth inhibition of human M14 cells at 10 uM after 48 hrs by sulforhodamine B assay; format: functional; conditions: M14, 48 h, read-out: GI
[42] = system: U-251; experiment: Growth inhibition of human U251 cells at 10 uM after 48 hrs by sulforhodamine B assay; format: functional; conditions: U-251, 48 h, read-out: GI
[43] = system: HCC 2998; experiment: Growth inhibition of human HCC2998 cells at 10 uM after 48 hrs by sulforhodamine B assay; format: functional
[44] = system: A549; experiment: Growth inhibition of human A549/ATCC cells at 10 uM after 48 hrs by sulforhodamine B assay; format: functional; conditions: A549, 48 h, read-out: GI
[45] = system: NCI/ADR-RES; experiment: Growth inhibition of human NCI-ADR-RES cells at 10 uM after 48 hrs by sulforhodamine B assay; format: functional

NS(=O)(=O)c1cnccc1N1CCN(c2ccc(Cl)c(Cl)c2)CC1
inhibition of growth at 10 µM ([1]; read-out: GI): 19%
inhibition of growth at 10 µM [2]: 16%
inhibition of growth at 10 µM [3]: 41%
inhibition of growth at 10 µM ([4]; SF-268, 48 h, read-out: GI): 2%
inhibition of growth at 10 µM ([5]; KM12, 48 h, read-out: GI): 18%
inhibition of growth at 10 µM [6]: 27%
inhibition of growth at 10 µM [7]: 35%
growth inhibition (GI) [8]: inactive
inhibition of growth at 10 µM [9]: 43%
inhibition of growth at 10 µM ([10]; NCI-H460, 48 h, read-out: GI): 16%
inhibition of growth at 10 µM [11]: 18%
inhibition of growth at 10 µM ([12]; HOP-62, 48 h, read-out: GI): 1%
inhibition of growth at 10 µM [13]: 35%
inhibition of growth at 10 µM [14]: 47%
inhibition of growth at 10 µM [15]: 39%
inhibition of growth at 10 µM [16]: 65%
inhibition of growth at 10 µM [17]: 18%
inhibition of growth at 10 µM ([18]; read-out: GI): 47%
Ki [19]: 0.341 µM
inhibition of growth at 10 µM [20]: 72%
inhibition of growth at 10 µM [21]: 27%
growth inhibition (GI) [22]: inactive
inhibition of growth at 10 µM ([23]; MDA-MB-231, 48 h, read-out: GI): 21%
inhibition of growth at 10 µM ([24]; DU-145, 48 h, read-out: GI): 7%
inhibition of growth at 10 µM [25]: 35%
inhibition of growth at 10 µM [26]: 31%
inhibition of growth at 10 µM [27]: 9%
inhibition of growth at 10 µM ([28]; RXF 393, 48 h, read-out: GI): 8%
inhibition of growth at 10 µM [29]: 36%
inhibition of growth at 10 µM [30]: 24%
inhibition of growth at 10 µM ([31]; SK-OV-3, 48 h, read-out: GI): 8%
inhibition of growth at 10 µM [32]: 1%
inhibition of growth at 10 µM ([33]; OVCAR-4, 48 h, read-out: GI): 65%
inhibition of growth at 10 µM ([34]; OVCAR-3, 48 h, read-out: GI): 30%
inhibition of growth at 10 µM [35]: 31%
inhibition of growth at 10 µM [36]: 38%
inhibition of growth at 10 µM [37]: 89%
growth inhibition (GI) [38]: inactive
inhibition of growth at 10 µM ([39]; SK-MEL-2, 48 h, read-out: GI): 16%
inhibition of growth at 10 µM ([40]; MDA-MB-435, 48 h, read-out: GI): 32%
inhibition of growth at 10 µM [41]: 22%

Cc1ccc(C)c(N2CCN(c3ccncc3S(N)(=O)=O)CC2)c1
growth inhibition (GI) [1]: inactive
inhibition of growth at 10 µM [42]: 20%
inhibition of growth at 10 µM [2]: 1%
inhibition of growth at 10 µM [3]: 1%
growth inhibition (GI) [4]: inactive
growth inhibition (GI) [5]: inactive
inhibition of growth at 10 µM [6]: 12%
inhibition of growth at 10 µM [7]: 9%
growth inhibition (GI) [43]: inactive
growth inhibition (GI) [8]: inactive
inhibition of growth at 10 µM [9]: 15%
growth inhibition (GI) [10]: inactive
inhibition of growth at 10 µM [11]: 7%
growth inhibition (GI) [12]: inactive
inhibition of growth at 10 µM [44]: 2%
inhibition of growth at 10 µM [13]: 10%
inhibition of growth at 10 µM [14]: 8%
inhibition of growth at 10 µM [15]: 11%
inhibition of growth at 10 µM [17]: 6%
growth inhibition (GI) [18]: inactive
Ki [19]: 0.548 µM
inhibition of growth at 10 µM [20]: 15%
inhibition of growth at 10 µM [21]: 8%
growth inhibition (GI) [22]: inactive
growth inhibition (GI) [23]: inactive
growth inhibition (GI) [24]: inactive
inhibition of growth at 10 µM [25]: 4%
inhibition of growth at 10 µM [26]: 15%
inhibition of growth at 10 µM [27]: 7%
growth inhibition (GI) [28]: inactive
inhibition of growth at 10 µM [29]: 9%
inhibition of growth at 10 µM [30]: 6%
growth inhibition (GI) [31]: inactive
growth inhibition (GI) [45]: inactive
inhibition of growth at 10 µM [32]: 3%
growth inhibition (GI) [33]: inactive
growth inhibition (GI) [34]: inactive
inhibition of growth at 10 µM [35]: 6%
inhibition of growth at 10 µM [36]: 7%
inhibition of growth at 10 µM [37]: 3%
growth inhibition (GI) [38]: inactive
growth inhibition (GI) [39]: inactive
growth inhibition (GI) [40]: inactive
inhibition of growth at 10 µM [41]: 1%
